Results on four molecules are retold here after patent publication US9434610B2, “HPMA—docetaxel conjugates and uses therefore” (REXAHN PHARMACEUTICALS, INC., priority 2008, dated 2016).

One assay deals with HCT116 (colon). Description: In vitro cell proliferation (SRB) assay, HCT116. To be noted: Homo sapiens, HCT-116, 96 hours, drug equivalent. In kind it is cell-based. The procedure: (§1) Cancer cell lines to determine the effect of HPMA-drug conjugates were obtained from the following sources: Human MDA-MB-231 (breast), HCT116 (colon) and PANC-1 (pancreas), from the American Type Culture Collection (ATCC) (Manassas, Va.). UMRC2 (kidney) from United States National Cancer Institute (Bethesda, Md.). Cells were maintained in Dulbecco's modified Eagle's medium (“DMEM”, Invitrogen) supplemented with 10% FBS, P/S and 10 mM HEPES. All cells were incubated at 37° C. under humidified 5% CO2.
(§2) The growth inhibition assay of HPMA-drug conjugates against human cancer cell lines was performed using the Sulforhodamine B (“SRB”) method (Skehan et al., J. National Cancer Institute, 82: 1107-1112 (1990)). […] After 5 minutes agitation in 10 mM Tris solution, the absorbance of each well was measured at 530 nm using Benchmark Plus Microplate reader (Bio-Rad Laboratories, Hercules, Calif.). The absorbance value provides a direct measure of the number of live cells post-treatment with HPMA copolymer-drug conjugates.
(§3) To translate the OD530 values into the number of live cells in each well, the OD530 values were compared to those on standard OD530-versus-cell number curves generated for each cell line. The percent survival was calculated using the formula: % Survival=live cell number[test]/live cell number[control]×100
(§4) The IC50 values were calculated by non-linear regression analysis.

The test system of another assay is UMRC2 (kidney). The assay can be described thus: In vitro cell proliferation (SRB) assay, UMRC2. In kind it is cell-based. To be noted: Homo sapiens, 96 hours, drug equivalent. As to the method:
as §1, §2, §3, §4

The test system of a further assay is MDA-MB-231 (breast). The assay can be described thus: In vitro cell proliferation (SRB) assay, MDA-MB-231. In kind it is cell-based. To be noted: Homo sapiens, 96 hours, drug equivalent. The procedure: as §1, §2, §3, §4
The next assay concerns PANC-1 (pancreas). The assay can be described thus: In vitro cell proliferation (SRB) assay, PANC-1. In kind it is cell-based. To be noted: Homo sapiens, 96 hours, drug equivalent. As to the method: as §1, §2, §3, §4
For the next assay, the target named is mucin-1 (Homo sapiens, UniProt P15941). The settings on record: specific ligand of mucin-1; cited from earlier work.
For assay [1], the target named is glycosylphosphatidylinositol-linked folate receptor (FR). To be noted: high affinity folate receptor; cited from earlier work.
In another assay the target is T1, reduced folate carrier (Homo sapiens, UniProt P41440).
T1 sequence (P41440 1-591): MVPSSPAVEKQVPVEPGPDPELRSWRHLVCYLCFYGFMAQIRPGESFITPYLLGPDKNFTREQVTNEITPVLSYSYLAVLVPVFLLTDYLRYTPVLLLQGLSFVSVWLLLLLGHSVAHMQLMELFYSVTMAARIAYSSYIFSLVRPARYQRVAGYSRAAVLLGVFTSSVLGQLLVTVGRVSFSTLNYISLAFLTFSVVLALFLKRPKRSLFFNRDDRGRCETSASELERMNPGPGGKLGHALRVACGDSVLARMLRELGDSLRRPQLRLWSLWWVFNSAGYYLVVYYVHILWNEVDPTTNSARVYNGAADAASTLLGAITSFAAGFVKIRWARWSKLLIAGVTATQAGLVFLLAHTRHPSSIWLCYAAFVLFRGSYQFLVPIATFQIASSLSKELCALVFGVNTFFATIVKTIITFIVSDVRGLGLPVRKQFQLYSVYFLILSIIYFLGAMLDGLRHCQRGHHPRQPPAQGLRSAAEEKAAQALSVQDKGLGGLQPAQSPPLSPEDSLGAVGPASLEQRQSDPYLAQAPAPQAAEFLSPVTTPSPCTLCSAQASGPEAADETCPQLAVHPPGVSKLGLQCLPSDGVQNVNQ
To be noted: low affinity reduced folate carrier, cellular uptake; cited from earlier work.

Sequence of mucin-1 (P15941 24-1255): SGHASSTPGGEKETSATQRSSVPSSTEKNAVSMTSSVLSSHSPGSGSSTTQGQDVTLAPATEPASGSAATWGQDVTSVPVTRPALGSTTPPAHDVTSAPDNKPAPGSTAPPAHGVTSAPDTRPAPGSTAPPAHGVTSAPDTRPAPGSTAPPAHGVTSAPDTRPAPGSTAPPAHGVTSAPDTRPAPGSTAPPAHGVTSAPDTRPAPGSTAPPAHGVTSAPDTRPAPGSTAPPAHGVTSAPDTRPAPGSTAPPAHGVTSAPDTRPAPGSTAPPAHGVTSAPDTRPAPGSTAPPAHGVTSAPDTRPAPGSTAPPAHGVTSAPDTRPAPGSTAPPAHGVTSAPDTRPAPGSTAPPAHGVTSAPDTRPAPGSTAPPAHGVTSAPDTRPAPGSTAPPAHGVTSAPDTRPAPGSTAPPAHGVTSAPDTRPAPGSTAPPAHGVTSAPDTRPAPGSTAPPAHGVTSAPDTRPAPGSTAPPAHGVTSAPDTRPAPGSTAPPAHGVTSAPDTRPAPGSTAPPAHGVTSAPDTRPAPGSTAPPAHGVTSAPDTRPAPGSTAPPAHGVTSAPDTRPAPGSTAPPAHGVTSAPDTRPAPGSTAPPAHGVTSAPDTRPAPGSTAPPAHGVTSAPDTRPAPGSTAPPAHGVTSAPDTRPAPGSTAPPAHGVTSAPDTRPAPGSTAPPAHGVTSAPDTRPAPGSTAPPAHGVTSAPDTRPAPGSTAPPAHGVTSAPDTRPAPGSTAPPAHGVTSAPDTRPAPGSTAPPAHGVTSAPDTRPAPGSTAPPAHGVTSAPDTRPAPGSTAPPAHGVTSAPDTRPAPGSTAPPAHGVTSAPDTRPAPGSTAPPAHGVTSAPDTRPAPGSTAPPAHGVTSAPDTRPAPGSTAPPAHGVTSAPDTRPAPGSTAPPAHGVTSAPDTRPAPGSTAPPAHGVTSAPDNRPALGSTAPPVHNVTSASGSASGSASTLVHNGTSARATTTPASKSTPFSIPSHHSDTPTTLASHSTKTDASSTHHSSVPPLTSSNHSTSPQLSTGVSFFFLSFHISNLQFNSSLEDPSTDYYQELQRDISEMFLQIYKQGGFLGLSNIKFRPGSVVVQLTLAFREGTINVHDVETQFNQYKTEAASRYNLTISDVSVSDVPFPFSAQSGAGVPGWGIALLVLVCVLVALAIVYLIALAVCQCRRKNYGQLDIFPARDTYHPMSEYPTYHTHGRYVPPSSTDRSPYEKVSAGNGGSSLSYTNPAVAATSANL

Consider `Nc1ccn([C@@H]2O[C@H](CO)[C@@H](O)C2(F)F)c(=O)n1` [Gemcitabine], for which the half-inhibitory concentration (IC50) with HCT116 (colon) was 0.056 µM; with UMRC2 (kidney), 0.29 µM; in the assay on MDA-MB-231 (breast) it was 0.22 µM; with PANC-1 (pancreas) it was 0.59 µM.
Taken in the same sequence, the figures for `CC(=O)O[C@@]12CO[C@@H]1C[C@H](O)[C@@]1(C)C(=O)[C@H](O)C3=C(C)[C@@H](OC(=O)[C@H](O)[C@@H](NC(=O)OC(C)(C)C)c4ccccc4)C[C@@](O)([C@@H](OC(=O)c4ccccc4)[C@H]21)C3(C)C` [Docetaxel] were 0.00055 µM, 0.026 µM, 0.00077 µM and 0.0012 µM.
With “synthetic peptide YCAREPPTRTFAYWG (SEQ ID NO: 9), specific ligand of mucin-1 [EPPT1]”, in the assay with mucin-1, the dissociation constant Kd was 20000 nM.
Regarding `Nc1nc2ncc(CNc3ccc(C(=O)N[C@@H](CCC(=O)O)C(=O)O)cc3)nc2c(=O)[nH]1` [folates, Folic acid], in assay [1], the Kd was roughly 0.1 nM. The Michaelis-Menten constant (Km) on reduced folate carrier was roughly 1 µM.
